Measured values taken from patent publication US11596639B2, “Substituted indole Mcl-1 inhibitors” (Vanderbilt University, priority 2016, dated 2023).
Read-outs that look alike come from different tables or passages of the source.

Legend:
Mcl-1 = Mcl-1 (Homo sapiens (Human), UniProt Q07820); test: Fluorescence polarization anisotropy (FPA) competition assay, FITC-Bak or FITC-Bim BH3 peptide; type: binding; details: read-out: Ki for Inhibition of Mcl-1 by FPA assay
[1] = test system: H929 human cancer cell lines; test: Cellular viability / proliferation (Cell TiterGlo, 72 h); type: cell-based
Summary of the method: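 Cells were seeded at 1,000 cells/well in medium with 10% FBS and dosed 24 h later with a 2-fold serial dilution of compound (top concentration 50 μM, final DMSO <1%).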

[2] = Homo sapiens, NCI-H929, 72 h, read-out: GI50 on cellular proliferation of H929 human cancer cell lines, H929 cells, 72 h, Cell TiterGlo, 10% FBS

Chain of Mcl-1 (Q07820 172-327): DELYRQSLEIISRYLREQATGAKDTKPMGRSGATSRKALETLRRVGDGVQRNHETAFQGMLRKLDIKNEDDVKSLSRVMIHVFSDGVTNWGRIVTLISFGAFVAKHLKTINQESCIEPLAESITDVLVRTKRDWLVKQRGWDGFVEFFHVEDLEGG

Structure (SMILES)	Ki (Mcl-1)	GI50 [1, 2]	GI50 ([1]; read-out: GI50 on cellular proliferation of H929 human cancer cell lines, H929 cells, 72 h, Cell TiterGlo, 10% FBS)
Cc1cc(OCCCc2c3n(c4c(-c5c(C)nn(C)c5C)c(Cl)ccc24)[C@H](C)CN(c2cn(C)c4ccc(S(=O)(=O)N5CCNCC5)cc24)C3=O)cc(C)c1Cl [Example 265, (R)-7-chloro-10-(3-(4-chloro-3,5-dimethylphenoxy)propyl)-4-methyl-2-(1-methyl-5-(piperazin-1-ylsulfonyl)-1H-indol-3-yl)-6-(1,3,5-trimethyl-1H-pyrazol-4-yl)-3,4-dihydropyrazino[1,2-a]indol-1(2H)-one]	8.2 nM	1500 nM	
Cc1cc(OCCCc2c3n(c4c(-c5c(C)ncnc5C)c(Cl)ccc24)[C@H](C)CN(c2cccc4cc(C(=O)O)cnc24)C3=O)cc(C)c1Cl [Example 227, 8-[(4R)-7-chloro-10-[3-(4-chloro-3,5-dimethyl-phenoxy)propyl]-6-(4,6-dimethylpyrimidin-5-yl)-4-methyl-1-oxo-3,4-dihydropyrazino[1,2-a]indol-2-yl]quinoline-3-carboxylic acid]	< 1 nM	1300 nM	
COC(=O)c1ccc2c(c1)c(N1C[C@@H](C)n3c(c(CCCOc4cc(C)c(Cl)c(C)c4)c4ccc(Cl)c(-c5c(C)nn(C)c5C)c43)C1=O)cn2C (single isomer, unassigned) [Example 207]	< 1 nM		750 nM
Cc1cc(OCCCc2c3n(c4c(-c5c(C)nn(C)c5C)c(Cl)ccc24)[C@H](C)CN(c2cn(C)c4ccc(C#N)cc24)C3=O)cc(C)c1Cl [Example 208, (R)-3-(7-Chloro-10-(3-(4-chloro-3,5-dimethylphenoxy)propyl)-4-methyl-1-oxo-6-(1,3,5-trimethyl-1H-pyrazol-4-yl)-3,4-dihydropyrazino[1,2-a]indol-2(1H)-yl)-1-methyl-1H-indole-5-carbonitrile]	< 1 nM	1600 nM	
Cc1cc(OCCCc2c3n(c4c(-c5c(C)nn(C)c5C)c(Cl)ccc24)[C@H](C)CN(c2ccnc4c(C(=O)O)cccc24)C3=O)cc(C)c1Cl [Example 253, (R)-4-(7-Chloro-10-(3-(4-chloro-3,5-dimethylphenoxy)propyl)-4-methyl-1-oxo-6-(1,3,5-trimethyl-1H-pyrazol-4-yl)-3,4-dihydropyrazino[1,2-a]indol-2(1H)-yl)quinoline-8-carboxylic acid]	1.2 nM	1100 nM	
COc1cc(C(=O)O)nc2c(N3C[C@@H](C)n4c(c(CCCOc5cc(C)c(Cl)c(C)c5)c5ccc(Cl)c(-c6c(C)nn(C)c6C)c54)C3=O)cccc12 [Example 239, (R)-8-(7-Chloro-10-(3-(4-chloro-3,5-dimethylphenoxy)propyl)-4-methyl-1-oxo-6-(1,3,5-trimethyl-1H-pyrazol-4-yl)-3,4-dihydropyrazino[1,2-a]indol-2(1H)-yl)-4-methoxyquinoline-2-carboxylic acid]	< 1 nM	1800 nM	
Cc1cc(OCCCc2c3n(c4c(-c5c(C)nn(C)c5C)c(Cl)ccc24)[C@H](C)CN(c2cccc4cc(C#N)n(C)c24)C3=O)cc(C)c1Cl [Example 300, 7-[(4R)-7-chloro-10-[3-(4-chloro-3,5-dimethyl-phenoxy)propyl]-4-methyl-1-oxo-6-(1,3,5-trimethylpyrazol-4-yl)-3,4-dihydropyrazino[1,2-a]indol-2-yl]-1-methyl-indole-2-carbonitrile]	2 nM	5900 nM	
Cc1cc(OCCCc2c3n(c4c(-c5c(C)nn(C)c5C)c(Cl)ccc24)[C@H](C)CN(c2cccc4ccn(C)c24)C3=O)cc(C)c1Cl [Example 234, (R)-7-Chloro-10-(3-(4-chloro-3,5-dimethylphenoxy)propyl)-4-methyl-2-(1-methyl-1H-indol-7-yl)-6-(1,3,5-trimethyl-1H-pyrazol-4-yl)-3,4-dihydropyrazino[1,2-a]indol-1(2H)-one]	< 1 nM	1600 nM	
Cc1cc(OCCCc2c3n(c4c(-c5c(C)nn(C)c5C)c(Cl)ccc24)[C@H](C)CN(c2cn(C)c4ccc(-c5cccnn5)cc24)C3=O)cc(C)c1Cl [Example 424, (R)-7-Chloro-10-(3-(4-chloro-3,5-dimethylphenoxy)propyl)-4-methyl-2-(1-methyl-5-(pyridazin-3-yl)-1H-indol-3-yl)-6-(1,3,5-trimethyl-1H-pyrazol-4-yl)-3,4-dihydropyrazino[1,2-a]indol-1(2H)-one]	2.6 nM	1300 nM	
Cc1cc(OCCCc2c3n(c4c(-c5c(C)nn(C)c5C)c(Cl)ccc24)[C@H](C)CN(c2cn(C)c4cc(-c5nnn(C)n5)ccc24)C3=O)cc(C)c1Cl [Example 370, (R)-7-Chloro-10-(3-(4-chloro-3,5-dimethylphenoxy)propyl)-4-methyl-2-(1-methyl-6-(2-methyl-2H-tetrazol-5-yl)-1H-indol-3-yl)-6-(1,3,5-trimethyl-1H-pyrazol-4-yl)-3,4-dihydropyrazino[1,2-a]indol-1(2H)-one]	2.8 nM	4500 nM	
Cc1cc(OCCCc2c3n(c4c(-c5c(C)nn(C)c5C)c(Cl)ccc24)CCCN(c2cc(C(=O)O)cc4nn(CCN(C)C)cc24)C3=O)cc(C)c1Cl [Example 28, 4-[8-chloro-11-[3-(4-chloro-3,5-dimethyl-phenoxy)propyl]-1-oxo-7-(1,3,5-trimethylpyrazol-4-yl)-4,5-dihydro-3H-[1,4]diazepino[1,2-a]indol-2-yl]-2-[2-(dimethylamino)ethyl]indazole-6-carboxylic acid]	1.8 nM	3700 nM	
Cc1cc(OCCCc2c3n(c4c(-c5c(C)nn(C)c5C)c(Cl)ccc24)[C@H](C)CN(c2cn(C)c4ccc(-c5cnn(C)c5)cc24)C3=O)cc(C)c1Cl [Example 391, (R)-7-Chloro-10-(3-(4-chloro-3,5-dimethylphenoxy)propyl)-4-methyl-2-(1-methyl-5-(1-methyl-1H-pyrazol-4-yl)-1H-indol-3-yl)-6-(1,3,5-trimethyl-1H-pyrazol-4-yl)-3,4-dihydropyrazino[1,2-a]indol-1(2H)-one]	2.1 nM	370 nM	
Cc1cc(OCCCc2c3n(c4c(-c5c(C)nn(CC6CCOCC6)c5C)c(Cl)ccc24)[C@H](C)CN(c2cn(C)c4cc(C(=O)O)ccc24)C3=O)cc(C)c1Cl [Example 308, (R)-3-(7-chloro-10-(3-(4-chloro-3,5-dimethylphenoxy)propyl)-6-(3,5-dimethyl-1-((tetrahydro-2H-pyran-4-yl)methyl)-1H-pyrazol-4-yl)-4-methyl-1-oxo-3,4-dihydropyrazino[1,2-a]indol-2(1H)-yl)-1-methyl-1H-indole-6-carboxylic acid]	< 1 nM	410 nM	
Cc1cc(OCCCc2c3n(c4c(-c5c(C)nn(C)c5C)c(Cl)ccc24)[C@H](C)CN(c2cc4c(C(=O)O)cccc4n2C)C3=O)cc(C)c1Cl [Example 170, 2-[(4R)-7-chloro-10-[3-(4-chloro-3,5-dimethyl-phenoxy)propyl]-4-methyl-1-oxo-6-(1,3,5-trimethylpyrazol-4-yl)-3,4-dihydropyrazino[1,2-a]indol-2-yl]-1-methyl-indole-4-carboxylic acid]	2.7 nM	2600 nM	
